From patent US20260207570A1, “OPTIMIZED DOSING OF LERIGLITAZONE” (MINORYX THERAPEUTICS S.L., priority 2022, published 2026)
Read-outs that look alike come from different tables or passages of the source.

Legend:
[1] = Phase 1 single ascending dose (SAD) pharmacokinetics in healthy volunteers; format: in vivo, human; conditions: male, human, oral; for Tmax / AUC / Cmax: 270 mg; for AUC: read-out: AUC, Observed; for Cmax: read-out: Cmax, Observed
Protocol: (§1) Study design: A phase 1, randomized, double blind, placebo-controlled, single-center clinical study in 33 male healthy volunteers (HV) (19-54 years, 63.2-95.7 Kg) was conducted with leriglitazone HCl and divided in two parts: a single ascending dose (SAD) with three dose levels (30, 90 and 270 mg) in fasted conditions, followed with two dose levels (90 and 270 mg) in fed conditions; a multiple ascending dose (MAD) with a double-blind, parallel-design with two dose levels (135 and 270 mg) for 8 days and a separate cohort of subjects in an open-label parallel design with two dose levels (135 and 270 mg) including cerebrospinal fluid (CSF) collection on day 8. In the fasted conditions a fasting period of at least 4 hours was required before obtaining plasma samples. The food effect (FE) was assessed by comparing fasted with fed conditions (dosing after a high-fat breakfast per FDA definition with a calculated caloric content of 918 kcal). In the MAD part (fed) the medication was taken before a normal breakfast. Leriglitazone HCl was supplied by ChemConnection and an oral suspension of leriglitazone (20% w/v kleptose, 2% ethanol in 100 mM phosphate buffer pH=7.8) at 6 mg/ml was used in the study.
(§2) Blood, Urine and CSF sampling: In the SAD, blood samples were drawn at the following time points: pre-dose and 0.25, 0.5, 0.75, 1, 1.5, 2, 2.5, 3, 4, 5, 6, 8, 10, 12, 16, 24, 36, 48, 72, 96 and 120 hours post-dose. Urine was collected at pre-dose (within 12 hours prior to dosing) and over 0-6, 6-12, 12-24, 24-36, 36-48 hours post-dose collection intervals. In the MAD, blood samples were collected on day 1 at pre-dose and 0.25, 0.5, 0.75, 1, 1.5, 2, 2.5, 3, 4, 5, 6, 8, 10, 12, and 16 hours post-dose and at pre-dose and at 4 hours post-dose on day 2 to day 7, and on day 8 at pre-dose and 0.25, 0.5, 0.75, 1, 1.5, 2, 2.5, 3, 4, 5, 6, 8, 10, 12, 16, 24, 36, 48, 72, 96 and 120 hours post-dose. CSF were taken on day −1 and on day 8, at 4 hours post-dose.
(§3) Pharmacokinetic parameter calculation: PK parameters (Cmax, Tmax, t1/2, AUC0-t, CL/F, Vz/F, AUC0-t, RAUC, RCmax) were estimated using non-compartmental analysis (NCA) (Phoenix WinNonlin® Version 6.3).
(§4) Statistical analysis: Descriptive statistics for all relevant PK parameters: n, mean, minimum, median, maximum, geometric mean, and coefficient of variation (CV %); analysis of variance on Cmax and AUC to determine dose proportionality and food effect (FE).

[2] = Phase 1 multiple ascending dose (MAD) pharmacokinetics with CSF collection in healthy volunteers; format: in vivo, human; conditions: for CSF C4h / concentration at 4 h: total; for accumulation RCmax: day 8 vs day 1; for Vd/F: read-out: Vz/F
Protocol: as §1, §2, §3, §4
The ratio of unbound leriglitazone concentration in brain to unbound concentration in plasma (Kpu,u; Cb,u/Cp,u) was calculated dividing the unbound CSF Cmax by the unbound plasma Cmax. Fractions unbound in plasma (fu,p) to obtain the unbound Cmax values were already reported. Rodriguez-Pascau, L. et al., Sci. Transl. Med. 13, eabc0555 (2021).

[3] = plasma, single dose 270 mg Fasted

CC(O)c1ccc(CCOc2ccc(CC3SC(=O)NC3=O)cc2)nc1 (centres unmarked) [Leriglitazone, 5-[[4-[2-[5-(1-hydroxyethyl)pyridin-2-yl]ethoxy]phenyl]methyl]-1,3-thiazolidine-2,4-dione]
Tmax ([1]; plasma, SAD fed conditions, 90 and 270 mg, read-out: Tmax): 3 to 6 h | AUC [1, 3]: 369 µg·h/mL | Cmax [1, 3]: 13400 ng/mL | Tmax ([1]; plasma, single dose 270 mg Fasted, read-out: Tmax, Observed): 1.5 h | AUC ([1]; plasma, single dose 270 mg Fed): 368 µg·h/mL | Cmax ([1]; plasma, single dose 270 mg Fed): 11500 ng/mL | Tmax ([1]; plasma, single dose 270 mg Fed, read-out: Tmax, Observed): 4 h | Vd ([1]; plasma, PBPK model input, estimated from phase 1 SAD data, read-out: Vss): 0.29 L/kg | half-life ([1]; plasma, SAD, read-out: Half-lives): 23 to 24 h | CL renal ([1]; urine, PBPK model input): 0.55 mL/min | CL/F ([2]; 135 mg MD Day 1, n = 8, geometric mean (CV %)): 1.59 (17.8) L./h | CSF C4h ([2]; 135 mg MD Day 8, 4 hours post-dose, geometric mean (CV %)): 188 (15.9) ng/mL | CL/F ([2]; 270 mg MD Day 1, n = 8, geometric mean (CV %)): 1.63 (14.4) L./h | CSF C4h ([2]; 270 mg MD Day 8, 4 hours post-dose, geometric mean (CV %)): 332 (13.4) ng/mL | increase of CSF concentration on doubling the dose ([2]; 270 mg vs 135 mg, day 8, 4 hours post-dose): 1.8 fold | accumulation RCmax ([2]; MAD 135 mg): 1.7 | accumulation RAUC ([2]; MAD 270 mg dose): 1.81 | accumulation RCmax ([2]; MAD 270 mg): 1.7 | time to steady state ([2]; MAD 135 or 270 mg daily, fed): 5 days | CSF Cmax ([2]; human, 135 mg): 188 ng/mL | CSF Cmax ([2]; human, 270 mg): 332 ng/mL | brain penetration ([2]; judged from CSF to plasma concentrations): good | Kp at 4 h ([2]; male, CSF and plasma (unbound), oral, human, 135 mg, unbound CSF Cmax / unbound plasma Cmax, read-out: Kpu, u based on CSF): 0.55 | Kp ([2]; male, CSF and plasma (unbound), oral, human, 270 mg, unbound CSF Cmax / unbound plasma Cmax, read-out: Kpu, u based on CSF): 0.54 | Kp at 4 h ([2]; male, human, CSF and plasma, oral, 135 mg MD Day 8, geometric mean (CV %), read-out: CSF/Plasma): 0.021 | Kp at 4 h ([2]; male, human, CSF and plasma, oral, 270 mg MD Day 8, geometric mean (CV %), read-out: CSF/Plasma): 0.024 | Kp at 4 h ([2]; male, human, CSF and plasma, oral, day 8, 4 hours post-dose, read-out: total concentrations in CSF as share of total plasma concentrations): 0.022 to 0.025 | concentration at 4 h ([2]; male, human, CSF, oral, 135 mg MD Day 8, 4 hours post-dose, geometric mean (CV %), read-out: CSF C4h): 188 ng/mL | concentration at 4 h ([2]; male, human, CSF, oral, 270 mg MD Day 8, 4 hours post-dose, geometric mean (CV %), read-out: CSF C4h): 332 ng/mL | Tmax ([2]; male, human, plasma, oral, 135 mg, 135 mg MD Day 1, n = 8, Median, read-out: Tmax): 3 h | Vd/F ([2]; male, human, plasma, oral, 135 mg, 135 mg MD Day 1, n = 8, geometric mean (CV %)): 47.1 L | Cmax ([2]; male, human, plasma, oral, 135 mg, 135 mg MD Day 1, n = 8, plasma total, geometric mean, read-out: Cmax): 5430 ng/mL | Tmax ([2]; male, human, plasma, oral, 135 mg, 135 mg MD Day 8, n = 8, Median, read-out: Tmax): 4 h | Vd/F ([2]; male, human, plasma, oral, 135 mg, 135 mg MD Day 8, n = 8, geometric mean (CV %)): 27.7 L | Cmax ([2]; male, human, plasma, oral, 135 mg, 135 mg MD Day 8, n = 8, plasma total, geometric mean, read-out: Cmax): 9500 ng/mL | AUC ([2]; male, human, plasma, oral, 135 mg, 135 mg daily, fed, Day 1, read-out: AUC, Observed): 85.1 µg·h/mL | Cmax ([2]; male, human, plasma, oral, 135 mg, 135 mg daily, fed, Day 1, read-out: Cmax, Observed): 5490 ng/mL | Tmax ([2]; male, human, plasma, oral, 135 mg, 135 mg daily, fed, Day 1, read-out: Tmax, Observed): 3 h | AUC ([2]; male, human, plasma, oral, 135 mg, 135 mg daily, fed, Day 8, read-out: AUC, Observed): 145 µg·h/mL | Cmax ([2]; male, human, plasma, oral, 135 mg, 135 mg daily, fed, Day 8, read-out: Cmax, Observed): 9490 ng/mL | Tmax ([2]; male, human, plasma, oral, 135 mg, 135 mg daily, fed, Day 8, read-out: Tmax, Observed): 4 h | AUC ([2]; male, human, plasma, oral, 135 mg, human, 135 mg, read-out: Total plasma AUC): 145 µg·h/mL | Cmax ([2]; male, human, plasma, oral, 135 mg, human, 135 mg, read-out: Total plasma Cmax): 9490 ng/mL | Tmax ([2]; male, human, plasma, oral, 270 mg, 270 mg MD Day 1, n = 8, Median, read-out: Tmax): 3 h | Vd/F ([2]; male, human, plasma, oral, 270 mg, 270 mg MD Day 1, n = 8, geometric mean (CV %)): 52.7 L | Cmax ([2]; male, human, plasma, oral, 270 mg, 270 mg MD Day 1, n = 8, plasma total, geometric mean, read-out: Cmax): 10000 ng/mL | Tmax ([2]; male, human, plasma, oral, 270 mg, 270 mg MD Day 8, n = 7, Median, read-out: Tmax): 4 h | Vd/F ([2]; male, human, plasma, oral, 270 mg, 270 mg MD Day 8, n = 7, geometric mean (CV %)): 29.5 L | Cmax ([2]; male, human, plasma, oral, 270 mg, 270 mg MD Day 8, n = 7, plasma total, geometric mean, read-out: Cmax): 17000 ng/mL | AUC ([2]; male, human, plasma, oral, 270 mg, 270 mg daily, fed, Day 1, read-out: AUC, Observed): 165 µg·h/mL | Cmax ([2]; male, human, plasma, oral, 270 mg, 270 mg daily, fed, Day 1, read-out: Cmax, Observed): 10000 ng/mL | Tmax ([2]; male, human, plasma, oral, 270 mg, 270 mg daily, fed, Day 1, read-out: Tmax, Observed): 3 h | AUC ([2]; male, human, plasma, oral, 270 mg, 270 mg daily, fed, Day 8, read-out: AUC, Observed): 299 µg·h/mL | Cmax ([2]; male, human, plasma, oral, 270 mg, 270 mg daily, fed, Day 8, read-out: Cmax, Observed): 17200 ng/mL | Tmax ([2]; male, human, plasma, oral, 270 mg, 270 mg daily, fed, Day 8, read-out: Tmax, Observed): 4 h | AUC ([2]; male, human, plasma, oral, 270 mg, human, 270 mg, read-out: Total plasma AUC): 299 µg·h/mL | Cmax ([2]; male, human, plasma, oral, 270 mg, human, 270 mg, read-out: Total plasma Cmax): 17200 ng/mL | concentration at 4 h ([2]; male, human, plasma, oral, 270 mg MD Day 8, 4 hours post-dose, geometric mean (CV %), read-out: Plasma C4h): 14200 ng/mL | mean CL/F ([2]; phase 1 MAD part day 8): 0.93 L/h
